Read-outs that look alike come from different tables or passages of the source.
Legend:
DYRK1B = DYRK1B (Homo sapiens, UniProt Q9Y463); assay: HOTSPOT radiometric kinase assay; format: biochemical
STK33 = target: T1, STK33 (Homo sapiens, UniProt Q9BYT3); assay: HOTSPOT radiometric kinase assay; format: biochemical; conditions: 10 μM ATP
T1 construct: purchased Reaction Biology Corp

smMLCK = target: T2, smMLCK (Homo sapiens, UniProt Q15746); assay: HOTSPOT radiometric kinase assay; format: biochemical; conditions: 10 μM ATP
T2 construct: purchased Reaction Biology Corp

WNK1 = target: T3, WNK1 (Homo sapiens, UniProt Q9H4A3); assay: HOTSPOT radiometric kinase assay; format: biochemical; conditions: 10 μM ATP
T3 construct: purchased Reaction Biology Corp

PKCη = target: T4, PKCη (Homo sapiens, UniProt P24723); assay: HOTSPOT radiometric kinase assay; format: biochemical
T4 construct: purchased Reaction Biology Corp

FLT3 = target: T5, FLT3 (Homo sapiens, UniProt P36888); assay: HOTSPOT radiometric kinase assay; format: biochemical
T5 construct: purchased Reaction Biology Corp

Luciferase = assay: luciferase assay without PKA (Luciferase Only); format: biochemical
Text: . Therefore, a competitive kinetic study was further conducted to investigate how 1 interacted with the PKA protein. […]. Thus, all the results supported that 1 was likely to function as an ATP-competitive inhibitor by direct interacting with the PKA catalytic unit (see FIGS. 2A-2B).

AKT1 = AKT1 (Homo sapiens, UniProt P31749); assay: HOTSPOT radiometric kinase assay
FLT1/VEGFR1 = FLT1/VEGFR1 (Homo sapiens, UniProt P17948); assay: HOTSPOT radiometric kinase assay
PKD2 = target: T6, PKD2 (Homo sapiens, UniProt Q9BZL6); assay: HOTSPOT radiometric kinase assay; format: biochemical; conditions: 10 μM ATP
T6 construct: purchased Reaction Biology Corp

IRAK2 = target: T7, IRAK2 (Homo sapiens, UniProt O43187); assay: HOTSPOT radiometric kinase assay; format: biochemical; conditions: 10 μM ATP
T7 construct: purchased Reaction Biology Corp

EPHB3 = target: T8, EPHB3 (Homo sapiens, UniProt P54753); assay: HOTSPOT radiometric kinase assay; format: biochemical; conditions: 10 μM ATP
T8 construct: purchased Reaction Biology Corp

PKCμ/PKD1 = target: T9, PKCμ/PKD1 (Homo sapiens, UniProt Q15139); assay: HOTSPOT radiometric kinase assay; format: biochemical; conditions: 10 μM ATP
T9 construct: purchased Reaction Biology Corp

LATS2 = target: T10, LATS2 (Homo sapiens, UniProt Q9NRM7); assay: HOTSPOT radiometric kinase assay; format: biochemical; conditions: 10 μM ATP
T10 construct: purchased Reaction Biology Corp

PKN1 = target: T11, PKN1 (Homo sapiens, UniProt Q16512); assay: HOTSPOT radiometric kinase assay; format: biochemical; conditions: 10 μM ATP
T11 construct: purchased Reaction Biology Corp

CLK2 = target: T12, CLK2 (Homo sapiens, UniProt P49760); assay: HOTSPOT radiometric kinase assay; format: biochemical; conditions: 10 μM ATP
T12 construct: purchased Reaction Biology Corp

PKCv/PKD3 = target: T13, PKCv/PKD3 (Homo sapiens, UniProt O94806); assay: HOTSPOT radiometric kinase assay; format: biochemical
T13 construct: purchased Reaction Biology Corp
T13 sequence (O94806 1-890): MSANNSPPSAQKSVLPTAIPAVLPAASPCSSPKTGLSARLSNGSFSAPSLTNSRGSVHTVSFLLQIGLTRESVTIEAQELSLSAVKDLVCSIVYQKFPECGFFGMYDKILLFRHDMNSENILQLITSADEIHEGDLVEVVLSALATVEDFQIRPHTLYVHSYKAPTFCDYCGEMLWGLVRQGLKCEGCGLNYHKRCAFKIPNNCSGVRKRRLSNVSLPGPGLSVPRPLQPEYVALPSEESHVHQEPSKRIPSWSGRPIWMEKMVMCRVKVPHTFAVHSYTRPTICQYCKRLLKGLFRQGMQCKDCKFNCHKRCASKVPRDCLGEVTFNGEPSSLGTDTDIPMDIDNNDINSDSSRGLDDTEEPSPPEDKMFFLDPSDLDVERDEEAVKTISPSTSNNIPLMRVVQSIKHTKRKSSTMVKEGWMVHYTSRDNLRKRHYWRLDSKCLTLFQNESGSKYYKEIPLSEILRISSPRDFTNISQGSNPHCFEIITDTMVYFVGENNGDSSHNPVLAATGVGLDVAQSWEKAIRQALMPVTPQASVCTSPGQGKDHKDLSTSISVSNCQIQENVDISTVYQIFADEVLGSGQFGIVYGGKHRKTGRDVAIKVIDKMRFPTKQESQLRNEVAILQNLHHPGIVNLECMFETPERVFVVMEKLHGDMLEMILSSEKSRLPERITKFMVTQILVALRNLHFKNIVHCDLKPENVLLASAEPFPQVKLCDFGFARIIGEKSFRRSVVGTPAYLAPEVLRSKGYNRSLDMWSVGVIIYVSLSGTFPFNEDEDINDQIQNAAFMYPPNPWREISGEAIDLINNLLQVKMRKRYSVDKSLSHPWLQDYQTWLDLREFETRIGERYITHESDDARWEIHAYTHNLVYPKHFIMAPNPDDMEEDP

STK39/STLK3 = target: T14, STK39/STLK3 (Homo sapiens, UniProt Q9UEW8); assay: HOTSPOT radiometric kinase assay; format: biochemical; conditions: 2 μM, 10 μM ATP
T14 construct: purchased Reaction Biology Corp

MAP2K1 (MEK1) = MAP2K1 (MEK1) (Homo sapiens, UniProt Q02750); assay: HOTSPOT radiometric kinase assay
DYRK1A = target: T15, DYRK1A (Homo sapiens, UniProt Q13627); assay: HOTSPOT radiometric kinase assay; format: biochemical
T15 construct: purchased Reaction Biology Corp

Sequence of DYRK1B (Q9Y463 whole entry): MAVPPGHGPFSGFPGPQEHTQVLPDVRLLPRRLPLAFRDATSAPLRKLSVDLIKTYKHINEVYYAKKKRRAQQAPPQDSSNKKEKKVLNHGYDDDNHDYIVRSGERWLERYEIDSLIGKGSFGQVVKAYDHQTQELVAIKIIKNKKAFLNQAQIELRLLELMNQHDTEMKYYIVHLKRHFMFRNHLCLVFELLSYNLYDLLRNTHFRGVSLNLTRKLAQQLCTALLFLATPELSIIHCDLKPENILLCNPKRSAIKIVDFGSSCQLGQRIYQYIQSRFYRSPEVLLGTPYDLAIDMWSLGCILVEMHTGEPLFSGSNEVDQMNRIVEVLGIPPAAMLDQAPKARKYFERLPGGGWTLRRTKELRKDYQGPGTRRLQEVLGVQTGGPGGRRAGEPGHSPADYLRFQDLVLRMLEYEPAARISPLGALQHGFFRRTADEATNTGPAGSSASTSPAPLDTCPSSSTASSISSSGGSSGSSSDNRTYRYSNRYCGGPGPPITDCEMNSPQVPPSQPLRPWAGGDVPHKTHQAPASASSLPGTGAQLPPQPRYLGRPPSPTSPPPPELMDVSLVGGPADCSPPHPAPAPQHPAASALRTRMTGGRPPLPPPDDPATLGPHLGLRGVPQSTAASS
Sequence of AKT1 (P31749 whole entry): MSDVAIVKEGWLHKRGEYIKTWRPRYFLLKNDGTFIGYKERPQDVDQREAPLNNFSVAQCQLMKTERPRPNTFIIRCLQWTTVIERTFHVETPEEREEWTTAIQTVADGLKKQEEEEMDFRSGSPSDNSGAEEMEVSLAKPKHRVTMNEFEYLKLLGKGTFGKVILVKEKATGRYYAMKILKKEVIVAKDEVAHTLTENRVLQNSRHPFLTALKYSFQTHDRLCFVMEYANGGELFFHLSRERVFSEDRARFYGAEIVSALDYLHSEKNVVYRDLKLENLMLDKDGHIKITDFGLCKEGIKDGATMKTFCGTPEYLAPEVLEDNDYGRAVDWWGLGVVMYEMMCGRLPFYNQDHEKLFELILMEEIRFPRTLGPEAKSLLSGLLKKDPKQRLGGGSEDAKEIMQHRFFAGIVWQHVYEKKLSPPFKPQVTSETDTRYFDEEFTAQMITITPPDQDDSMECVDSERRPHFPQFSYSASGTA
T4 sequence (P24723 whole entry): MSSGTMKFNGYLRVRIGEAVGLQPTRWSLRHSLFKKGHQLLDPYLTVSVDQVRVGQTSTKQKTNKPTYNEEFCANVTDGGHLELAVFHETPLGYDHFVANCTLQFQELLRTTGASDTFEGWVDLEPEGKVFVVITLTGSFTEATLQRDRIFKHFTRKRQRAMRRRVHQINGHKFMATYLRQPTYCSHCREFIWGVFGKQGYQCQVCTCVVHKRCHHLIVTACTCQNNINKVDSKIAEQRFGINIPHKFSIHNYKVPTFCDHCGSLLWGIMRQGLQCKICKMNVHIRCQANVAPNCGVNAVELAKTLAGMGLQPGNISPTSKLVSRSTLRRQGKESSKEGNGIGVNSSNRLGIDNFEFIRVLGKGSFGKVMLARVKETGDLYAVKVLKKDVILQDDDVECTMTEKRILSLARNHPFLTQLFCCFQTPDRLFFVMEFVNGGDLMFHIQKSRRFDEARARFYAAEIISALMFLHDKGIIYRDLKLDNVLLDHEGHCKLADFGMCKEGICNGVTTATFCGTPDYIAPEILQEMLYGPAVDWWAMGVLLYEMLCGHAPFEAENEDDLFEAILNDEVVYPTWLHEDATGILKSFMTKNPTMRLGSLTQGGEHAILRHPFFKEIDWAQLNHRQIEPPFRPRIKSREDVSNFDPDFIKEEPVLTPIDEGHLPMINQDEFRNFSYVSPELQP
T6 sequence (Q9BZL6 whole entry): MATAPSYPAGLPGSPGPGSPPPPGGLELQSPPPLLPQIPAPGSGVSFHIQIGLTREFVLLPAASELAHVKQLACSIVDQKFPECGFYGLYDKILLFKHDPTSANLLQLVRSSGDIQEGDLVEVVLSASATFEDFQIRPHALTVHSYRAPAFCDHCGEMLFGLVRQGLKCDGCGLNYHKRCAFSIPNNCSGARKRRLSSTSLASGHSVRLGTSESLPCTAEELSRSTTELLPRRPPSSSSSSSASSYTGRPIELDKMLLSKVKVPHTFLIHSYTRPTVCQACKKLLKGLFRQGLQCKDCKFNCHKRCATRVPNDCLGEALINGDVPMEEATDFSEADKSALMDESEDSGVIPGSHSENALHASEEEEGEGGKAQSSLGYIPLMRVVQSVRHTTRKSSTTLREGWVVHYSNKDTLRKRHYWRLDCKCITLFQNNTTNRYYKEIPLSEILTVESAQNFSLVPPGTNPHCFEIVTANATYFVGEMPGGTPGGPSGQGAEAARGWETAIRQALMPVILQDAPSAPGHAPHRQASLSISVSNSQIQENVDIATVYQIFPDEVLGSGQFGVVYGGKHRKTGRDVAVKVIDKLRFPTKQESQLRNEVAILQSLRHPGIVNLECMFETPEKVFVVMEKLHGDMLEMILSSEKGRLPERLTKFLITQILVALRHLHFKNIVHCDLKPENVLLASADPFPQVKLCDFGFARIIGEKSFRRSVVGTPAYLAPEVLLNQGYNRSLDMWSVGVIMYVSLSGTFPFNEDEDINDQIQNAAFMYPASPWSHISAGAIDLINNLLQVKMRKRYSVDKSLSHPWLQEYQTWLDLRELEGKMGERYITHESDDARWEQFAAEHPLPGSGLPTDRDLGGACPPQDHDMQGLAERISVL
T1 sequence (Q9BYT3 whole entry): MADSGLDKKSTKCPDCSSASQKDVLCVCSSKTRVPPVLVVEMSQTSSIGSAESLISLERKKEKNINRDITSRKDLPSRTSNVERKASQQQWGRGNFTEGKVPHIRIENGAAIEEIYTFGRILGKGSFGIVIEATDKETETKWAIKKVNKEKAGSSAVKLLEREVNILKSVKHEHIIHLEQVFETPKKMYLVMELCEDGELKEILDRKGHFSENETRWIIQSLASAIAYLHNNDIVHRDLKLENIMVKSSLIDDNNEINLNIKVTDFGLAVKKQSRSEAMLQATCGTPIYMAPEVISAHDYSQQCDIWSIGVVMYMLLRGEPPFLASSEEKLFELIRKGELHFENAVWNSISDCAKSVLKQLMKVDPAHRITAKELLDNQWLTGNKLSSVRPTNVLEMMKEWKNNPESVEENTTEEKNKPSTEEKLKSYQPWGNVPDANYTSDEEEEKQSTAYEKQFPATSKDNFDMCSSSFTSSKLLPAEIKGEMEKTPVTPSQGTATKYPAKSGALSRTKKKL
Sequence of MAP2K1 (MEK1) (Q02750 whole entry): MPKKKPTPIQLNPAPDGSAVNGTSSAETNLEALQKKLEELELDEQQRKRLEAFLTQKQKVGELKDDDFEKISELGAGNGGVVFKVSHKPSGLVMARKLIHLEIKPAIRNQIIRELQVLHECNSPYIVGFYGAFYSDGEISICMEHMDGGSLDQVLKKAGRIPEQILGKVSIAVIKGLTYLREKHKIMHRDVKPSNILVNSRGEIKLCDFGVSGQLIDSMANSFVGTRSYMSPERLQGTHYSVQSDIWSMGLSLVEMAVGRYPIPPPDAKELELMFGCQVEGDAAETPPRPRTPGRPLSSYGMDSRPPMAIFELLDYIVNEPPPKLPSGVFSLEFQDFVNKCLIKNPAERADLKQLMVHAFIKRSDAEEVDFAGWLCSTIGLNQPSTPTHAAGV
T9 sequence (Q15139 whole entry): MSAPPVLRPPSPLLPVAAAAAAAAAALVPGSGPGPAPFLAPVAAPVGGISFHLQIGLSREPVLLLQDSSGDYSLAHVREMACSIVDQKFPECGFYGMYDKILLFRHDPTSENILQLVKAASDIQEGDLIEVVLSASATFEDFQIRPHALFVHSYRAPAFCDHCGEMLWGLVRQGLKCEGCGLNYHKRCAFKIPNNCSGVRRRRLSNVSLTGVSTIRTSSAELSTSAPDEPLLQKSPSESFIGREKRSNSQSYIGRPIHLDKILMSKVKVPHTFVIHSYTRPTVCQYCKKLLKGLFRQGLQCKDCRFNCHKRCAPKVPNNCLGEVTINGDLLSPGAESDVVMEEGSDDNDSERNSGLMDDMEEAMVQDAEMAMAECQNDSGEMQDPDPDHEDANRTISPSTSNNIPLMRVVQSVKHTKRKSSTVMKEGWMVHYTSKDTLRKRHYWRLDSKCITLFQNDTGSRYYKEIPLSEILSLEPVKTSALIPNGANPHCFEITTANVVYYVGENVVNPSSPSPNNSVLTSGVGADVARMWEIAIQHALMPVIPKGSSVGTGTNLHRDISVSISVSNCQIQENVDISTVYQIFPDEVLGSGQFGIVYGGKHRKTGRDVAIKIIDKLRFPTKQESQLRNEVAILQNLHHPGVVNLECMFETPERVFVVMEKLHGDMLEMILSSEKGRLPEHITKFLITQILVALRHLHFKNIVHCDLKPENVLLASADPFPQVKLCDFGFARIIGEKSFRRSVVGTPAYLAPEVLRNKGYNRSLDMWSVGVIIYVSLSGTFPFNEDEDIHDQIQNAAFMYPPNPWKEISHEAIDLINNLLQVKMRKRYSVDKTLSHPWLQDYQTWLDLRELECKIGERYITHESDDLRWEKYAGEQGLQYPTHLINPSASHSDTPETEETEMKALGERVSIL
T12 sequence (P49760 whole entry): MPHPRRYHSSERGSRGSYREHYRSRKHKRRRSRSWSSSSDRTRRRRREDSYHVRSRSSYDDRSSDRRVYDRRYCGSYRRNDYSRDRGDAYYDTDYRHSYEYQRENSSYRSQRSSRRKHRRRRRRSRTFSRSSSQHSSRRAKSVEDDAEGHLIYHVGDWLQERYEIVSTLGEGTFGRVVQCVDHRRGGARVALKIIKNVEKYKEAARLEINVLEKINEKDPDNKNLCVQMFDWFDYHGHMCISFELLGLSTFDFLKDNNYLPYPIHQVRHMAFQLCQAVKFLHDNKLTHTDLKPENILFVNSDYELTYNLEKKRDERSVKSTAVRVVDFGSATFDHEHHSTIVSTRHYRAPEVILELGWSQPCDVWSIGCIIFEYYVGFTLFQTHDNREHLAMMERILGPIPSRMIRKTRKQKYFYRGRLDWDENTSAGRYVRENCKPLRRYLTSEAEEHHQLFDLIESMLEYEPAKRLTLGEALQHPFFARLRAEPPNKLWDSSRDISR

Q: What does the source list for `Cn1cncc1C1=CN(c2ncnc3nc[nH]c23)CCS1` [Compound 1, Aplithianine A]?
A: inhibition at 0.05 µM (DYRK1B; 50 nM, 10 μM ATP): 22.7%; inhibition at 2 µM (DYRK1B; 2 μM, 10 μM ATP): 95.3%; IC50 (DYRK1B; 10 μM ATP, read-out: DYRK1B IC50): 134 nM; DYRK1B Differential (as compared to PKG1a) (DYRK1B; IC50 (kinase)/IC50 (PKG1a)): 11.87; IC50 (DYRK1B; Table 4 dose-response, read-out: DYRK1B IC50 Values): 135 nM; inhibition at 0.05 µM (STK33; 50 nM): 23.6%; inhibition at 2 µM (STK33; 2 μM): 80.5%; inhibition at 0.05 µM (smMLCK; 50 nM): 18.2%; inhibition at 2 µM (smMLCK; 2 μM): 91.1%; inhibition at 0.05 µM (WNK1; 50 nM): 14.1%; inhibition at 2 µM (WNK1; 2 μM): 10.7%; inhibition at 0.05 µM (PKCη; 50 nM, 10 μM ATP): 15.8%; inhibition at 2 µM (PKCη; 2 μM, 10 μM ATP): 83.6%; IC50 (PKCη; 10 μM ATP, read-out: PKCη IC50): 202 nM; PKCeta Differential (as compared to PKG1a) (PKCη; IC50 (kinase)/IC50 (PKG1a)): 16.08; IC50 (PKCη; Table 4 dose-response, read-out: PKCeta IC50 Values): 183 nM; inhibition at 0.05 µM (FLT3; 50 nM, 10 μM ATP): 22.2%; inhibition at 2 µM (FLT3; read-out: FLT3 % inhibition): 88.1%; activity when PKA was absent in the assay (Luciferase): no activity was observed; IC50 (AKT1): 43 to 189 nM; inhibition at 0.05 µM (AKT1; read-out: AKT1 % inhibition): 25.1%; inhibition at 2 µM (AKT1; read-out: AKT1 % inhibition): 83.7%; IC50 (AKT1; read-out: AKT1 IC50, 10 μM ATP): 179 nM; IC50 (FLT1/VEGFR1): 18000 to 65000 nM; IC50 (FLT1/VEGFR1; read-out: FLT1/VEGFR1 IC50, 10 μM ATP): 18800 nM; inhibition at 0.05 µM (PKD2; 50 nM): 38.2%; inhibition at 2 µM (PKD2; 2 μM): 93.1%; inhibition at 0.05 µM (IRAK2; 50 nM): 30.7%; inhibition at 2 µM (IRAK2; 2 μM): 85%; inhibition at 0.05 µM (EPHB3; 50 nM): 12.8%; inhibition at 2 µM (EPHB3; 2 μM): 20.2%; inhibition at 0.05 µM (PKCμ/PKD1; 50 nM): 21.3%; inhibition at 2 µM (PKCμ/PKD1; 2 μM): 89.2%; inhibition at 0.05 µM (LATS2; 50 nM): 34.2%; inhibition at 2 µM (LATS2; 2 μM): 92.9%; inhibition at 0.05 µM (PKN1; 50 nM): 18.8%; inhibition at 2 µM (PKN1; 2 μM): 87.7%; inhibition at 2 µM (CLK2): 97.8%; inhibition at 0.05 µM (PKCv/PKD3; 50 nM, 10 μM ATP): 25%; inhibition at 2 µM (PKCv/PKD3; 2 μM, 10 μM ATP): 88.9%; IC50 (PKCv/PKD3; 10 μM ATP, read-out: PKCv/PKD3 IC50): 130 nM; PKCnu Differential (as compared to PKG1a) (PKCv/PKD3; IC50 (kinase)/IC50 (PKG1a)): 11.92; IC50 (PKCv/PKD3; Table 4 dose-response, read-out: PKCnu IC50 Values): 136 nM; inhibition at 2 µM (STK39/STLK3): 87.3%; IC50 (MAP2K1 (MEK1)): 18000 to 65000 nM; IC50 (MAP2K1 (MEK1); read-out: MAP2K1 / MEK1 IC50, 10 μM ATP): 23600 nM; inhibition at 0.05 µM (DYRK1A; 50 nM, 10 μM ATP): 23.1%; inhibition at 2 µM (DYRK1A; 2 μM, 10 μM ATP): 95.4%; IC50 (DYRK1A; 10 μM ATP, read-out: DYRK1A IC50): 119 nM; DYRK1A Differential (as compared to PKG1a) (DYRK1A; IC50 (kinase)/IC50 (PKG1a)): 10.01; IC50 (DYRK1A; Table 4 dose-response, read-out: DYRK1A IC50 Values): 114 nM

— US20260184713A1, “KINASE INHIBITORS” (The United States of America, as represented by the …, priority 2022, published 2026)
